In general, IC50 refers to the concentration that gives 50% inhibition.

The structures appear in SMILES notation.

This note sets out measurements from patent publication US20230295182A1, “SPIRO DERIVATIVES OF ALPHA-D-GALACTOPYRANOSIDES” (Idorsia Pharmaceuticals Ltd, priority 2020, published 2023).

One test concerns the target human Gal-3 (hGal-3) (Homo sapiens (Human), UniProt P17931). As to the kind of experiment: Competitive binding assay: biotinylated hGal-3 to microplate-adsorbed asialofetuin (ASF). As to conditions: Activity on hGal-3; binding to ASF-coated plates, 3 hours at 4° C.; mean values. The procedure, abridged:
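Biotinylated hGal-3 (300-1000 ng/mL) binding to plate-adsorbed asialofetuin, with DMSO-diluted compound added, incubated 3 h at 4 °C. After washing, bound protein detected with streptavidin-peroxidase (80 ng/mL, 1 h, 4 °C) and ABTS substrate, read spectrophotometrically. IC50 given as mean of several measurements.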

In a further test the target is human Gal-1 (hGal-1) (Homo sapiens, UniProt P09382). Kind of test: Competitive binding assay: biotinylated hGal-1 to microplate-adsorbed asialofetuin (ASF). Particulars: Activities on hGal-1; binding to ASF-coated plates, 3 hours at 4° C.; mean values; read-out: Gal-1 IC50. The procedure, abridged: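 Plate-adsorbed asialofetuin is incubated 3 h at 4 °C with biotinylated hGal-1, optionally its all-serine-substituted cysteine variant, plus compound dilutions. ABTS color after 1 h streptavidin-peroxidase (80 ng/mL) at 4 °C reports binding. Reported IC50 is a mean across repeat runs.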
human Gal-1 (hGal-1), sequence (P09382 2-135 limits assumed): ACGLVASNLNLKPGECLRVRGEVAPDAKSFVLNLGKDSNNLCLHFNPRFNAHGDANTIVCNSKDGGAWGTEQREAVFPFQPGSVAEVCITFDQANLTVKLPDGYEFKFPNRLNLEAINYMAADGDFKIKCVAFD

human Gal-3 (hGal-3), sequence (P17931 whole entry): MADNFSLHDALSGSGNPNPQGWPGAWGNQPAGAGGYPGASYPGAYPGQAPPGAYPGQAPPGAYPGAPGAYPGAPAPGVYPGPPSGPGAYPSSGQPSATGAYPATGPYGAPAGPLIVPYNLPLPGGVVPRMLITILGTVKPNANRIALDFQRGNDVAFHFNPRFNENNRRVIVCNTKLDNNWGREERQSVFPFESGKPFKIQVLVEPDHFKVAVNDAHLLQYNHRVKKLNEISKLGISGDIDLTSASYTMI

As for `CO[C@@H]1[C@@H](n2cc(-c3ccc(C)c(F)c3F)nn2)[C@@H](O)[C@@H](CO)O[C@@H]1CN1CC2(CCCCC2)OC1=O` [Example 3.02, 3-(((2R,3R,4S,5R,6R)-4-(4-(2,3-difluoro-4-methylphenyl)-1H-1,2,3-triazol-1-yl)-5-hydroxy-6-(hydroxymethyl)-3-methoxytetrahydro-2H-pyran-2-yl)methyl)-1-oxa-3-azaspiro[4.5]decan-2-one], the IC50 on human Gal-3 (hGal-3) turned out to be 36 nM; on human Gal-1 (hGal-1), 1400 nM.
For `COC(=O)CO[C@@H]1[C@@H](n2cc(-c3cc(F)c(F)c(F)c3)nn2)[C@@H](O)[C@@H](CO)O[C@@H]1CC1=NOC2(CCCCC2)C1` [Example 1.68, methyl 2-(((2R,3R,4S,5R,6R)-2-((1-oxa-2-azaspiro[4.5]dec-2-en-3-yl)methyl)-5-hydroxy-6-(hydroxymethyl)-4-(4-(3,4,5-trifluorophenyl)-1H-1,2,3-triazol-1-yl)tetrahydro-2H-pyran-3-yl)oxy)acetate], the concentration for half-maximal inhibition (IC50) at human Gal-3 (hGal-3) turned out to be 220 nM; at human Gal-1 (hGal-1) it was 3700 nM.
For `CO[C@@H]1[C@@H](n2cc(-c3cc(F)c(F)c(F)c3)nn2)[C@@H](O)[C@@H](CO)O[C@@H]1CC1=NOC2(CCC(O)CC2)C1` (stereo partly drawn) [Example 2.01, 3-(((2R,3R,4S,5R,6R)-5-hydroxy-6-(hydroxymethyl)-3-methoxy-4-(4-(3,4,5-trifluorophenyl)-1H-1,2,3-triazol-1-yl)tetrahydro-2H-pyran-2-yl)methyl)-1-oxa-2-azaspiro[4.5]dec-2-en-8-ol], in that order: 250 nM and 2200 nM.
For the compound `CO[C@@H]1[C@@H](n2cc(-c3ccc(Cl)c(F)c3F)nn2)[C@@H](O)[C@@H](CO)O[C@@H]1CC1=NO[C@]2(CC[C@@H](C#N)CC2)C1` [Example 1.60, (5s,8S)-3-(((2R,3R,4S,5R,6R)-4-(4-(4-chloro-2,3-difluorophenyl)-1H-1,2,3-triazol-1-yl)-5-hydroxy-6-(hydroxymethyl)-3-methoxytetrahydro-2H-pyran-2-yl)methyl)-1-oxa-2-azaspiro[4.5]dec-2-ene-8-carbonitrile], the figures for the IC50 on human Gal-3 (hGal-3) and at human Gal-1 (hGal-1) were 90 nM and 1600 nM, respectively.
For `CO[C@@H]1[C@@H](n2cc(-c3ccc(Cl)c(F)c3F)nn2)[C@@H](O)[C@@H](CO)O[C@@H]1CC1=NOC2(CCC(C#N)CC2)C1` (stereo partly drawn) [Example 1.49, 3-(((2R,3R,4S,5R,6R)-4-(4-(4-chloro-2,3-difluorophenyl)-1H-1,2,3-triazol-1-yl)-5-hydroxy-6-(hydroxymethyl)-3-methoxytetrahydro-2H-pyran-2-yl)methyl)-1-oxa-2-azaspiro[4.5]dec-2-ene-8-carbonitrile], in that order: 110 nM and 1200 nM.
In the same order, the values of `CO[C@@H]1[C@@H](n2cc(-c3cc(F)c(F)c(F)c3)nn2)[C@@H](O)[C@@H](CO)O[C@@H]1CC1=NOC2(CCNCC2)C1` [Example 1.07, (2R,3R,4S,5R,6R)-6-((1-oxa-2,8-diazaspiro[4.5]dec-2-en-3-yl)methyl)-2-(hydroxymethyl)-5-methoxy-4-(4-(3,4,5-trifluorophenyl)-1H-1,2,3-triazol-1-yl)tetrahydro-2H-pyran-3-ol] are 320 nM and 5700 nM.
For `CO[C@@H]1[C@@H](n2cc(-c3cc(F)c(C)cc3F)nn2)[C@@H](O)[C@@H](CO)O[C@@H]1CC1=NOC2(CCCCC2)C1` [Example 1.47, (2R,3R,4S,5R,6R)-6-((1-oxa-2-azaspiro[4.5]dec-2-en-3-yl)methyl)-4-(4-(2,5-difluoro-4-methylphenyl)-1H-1,2,3-triazol-1-yl)-2-(hydroxymethyl)-5-methoxytetrahydro-2H-pyran-3-ol], in that order: 430 nM and 2200 nM.
As to `CO[C@@H]1[C@@H](n2cc(-c3cc(F)c(F)c(F)c3)nn2)[C@@H](O)[C@@H](CO)O[C@@H]1CC1=NOC2(CCC(NCC(F)F)CC2)C1` (stereo partly drawn) [Example 2.15, (2R,3R,4S,5R,6R)-6-((8-((2,2-difluoroethyl)amino)-1-oxa-2-azaspiro[4.5]dec-2-en-3-yl)methyl)-2-(hydroxymethyl)-5-methoxy-4-(4-(3,4,5-trifluorophenyl)-1H-1,2,3-triazol-1-yl)tetrahydro-2H-pyran-3-ol], the concentration for half-maximal inhibition (IC50) at human Gal-3 (hGal-3) was found to be 280 nM; at human Gal-1 (hGal-1), 7200 nM.
